# PubChem BioAssay (NCI)
#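 Exposure lasted 48 hours, with cells grown in 96-well plates and compounds tested at five concentrations. At the GI50, growth is halved. Definition used: TGI = concentration required for complete inhibition of growth.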
# What was measured:
# Test in all cases: NCI-60 cell line screen, 48 h
# U251 CNS = test system: U251 CNS
# A498 renal = test system: A498 renal
# DU-145 prostate = test system: DU-145 prostate
# A549 NSCLC = test system: A549 NSCLC
# MOLT-4 leukemia = test system: MOLT-4 leukemia
# PC-3 prostate = test system: PC-3 prostate
# RPMI-8226 leukemia = test system: RPMI-8226 leukemia
# NCI-H226 lung = test system: NCI-H226 lung
# SR leukemia = test system: SR leukemia
# EKVX NSCLC = test system: EKVX NSCLC
# RXF 393 renal = test system: RXF 393 renal
# HOP-92 NSCLC = test system: HOP-92 NSCLC
# SF-295 CNS = test system: SF-295 CNS
# K-562 leukemia = test system: K-562 leukemia
# CCRF-CEM leukemia = test system: CCRF-CEM leukemia
# OVCAR-4 ovarian = test system: OVCAR-4 ovarian
# MDA-MB-231 breast = test system: MDA-MB-231 breast
# OVCAR-8 ovarian = test system: OVCAR-8 ovarian
# M14 melanoma = test system: M14 melanoma
# OVCAR-5 ovarian = test system: OVCAR-5 ovarian
# SW-620 colon = test system: SW-620 colon
# SK-MEL-5 melanoma = test system: SK-MEL-5 melanoma
# BT-549 breast = test system: BT-549 breast
# HS 578T breast = test system: HS 578T breast
# NCI-H460 lung = test system: NCI-H460 lung
# UO-31 renal = test system: UO-31 renal
# HCT-15 colon = test system: HCT-15 colon
# LOX IMVI melanoma = test system: LOX IMVI melanoma
# MDA-MB-435 = test system: MDA-MB-435
# UACC-257 melanoma = test system: UACC-257 melanoma
# SF-539 CNS = test system: SF-539 CNS
# HCT-116 colon = test system: HCT-116 colon
# NCI-H23 lung = test system: NCI-H23 lung
# T-47D breast = test system: T-47D breast
# SN12C renal = test system: SN12C renal
# NCI/ADR-RES ovarian = test system: NCI/ADR-RES ovarian
# TK-10 renal = test system: TK-10 renal
# HOP-62 NSCLC = test system: HOP-62 NSCLC
# 786-0 renal = test system: 786-0 renal
# MCF7 breast = test system: MCF7 breast
# UACC-62 melanoma = test system: UACC-62 melanoma
# HT29 colon = test system: HT29 colon
# MALME-3M melanoma = test system: MALME-3M melanoma
# SNB-75 CNS = test system: SNB-75 CNS
# IGROV1 ovarian = test system: IGROV1 ovarian
# CAKI-1 renal = test system: CAKI-1 renal
# SF-268 CNS = test system: SF-268 CNS
# OVCAR-3 ovarian = test system: OVCAR-3 ovarian
# SNB-19 CNS = test system: SNB-19 CNS
# NCI-H522 lung = test system: NCI-H522 lung
# ACHN renal = test system: ACHN renal
# COLO 205 colon = test system: COLO 205 colon
# KM12 colon = test system: KM12 colon
# SK-MEL-28 melanoma = test system: SK-MEL-28 melanoma
compound,measurement,setting,value
O=C1OCC(c2ccc(O)cc2)=C1c1cc(O)c(O)c(O)c1,GI50,U251 CNS,31.4 µM
same,TGI,U251 CNS,> 100 µM
same,GI50,A498 renal,> 100 µM
same,TGI,A498 renal,> 100 µM
same,GI50,DU-145 prostate,> 100 µM
same,TGI,DU-145 prostate,> 100 µM
same,GI50,A549 NSCLC,> 100 µM
same,TGI,A549 NSCLC,> 100 µM
same,GI50,MOLT-4 leukemia,> 100 µM
same,TGI,MOLT-4 leukemia,> 100 µM
same,GI50,PC-3 prostate,> 100 µM
same,TGI,PC-3 prostate,> 100 µM
same,GI50,RPMI-8226 leukemia,44.1 µM
same,TGI,RPMI-8226 leukemia,> 100 µM
same,GI50,NCI-H226 lung,> 100 µM
same,TGI,NCI-H226 lung,> 100 µM
same,GI50,SR leukemia,20.7 µM
same,TGI,SR leukemia,> 100 µM
same,GI50,EKVX NSCLC,> 100 µM
same,TGI,EKVX NSCLC,> 100 µM
same,GI50,RXF 393 renal,> 100 µM
same,TGI,RXF 393 renal,> 100 µM
same,GI50,HOP-92 NSCLC,> 100 µM
same,TGI,HOP-92 NSCLC,> 100 µM
same,GI50,SF-295 CNS,26.4 µM
same,TGI,SF-295 CNS,50.4 µM
same,GI50,K-562 leukemia,82.2 µM
same,TGI,K-562 leukemia,> 100 µM
same,GI50,CCRF-CEM leukemia,51.7 µM
same,TGI,CCRF-CEM leukemia,> 100 µM
same,GI50,OVCAR-4 ovarian,> 100 µM
same,TGI,OVCAR-4 ovarian,> 100 µM
same,GI50,MDA-MB-231 breast,> 100 µM
same,TGI,MDA-MB-231 breast,> 100 µM
same,GI50,OVCAR-8 ovarian,> 100 µM
same,TGI,OVCAR-8 ovarian,> 100 µM
same,GI50,M14 melanoma,> 100 µM
same,TGI,M14 melanoma,> 100 µM
same,GI50,OVCAR-5 ovarian,55.6 µM
same,TGI,OVCAR-5 ovarian,> 100 µM
same,GI50,SW-620 colon,68 µM
same,TGI,SW-620 colon,> 100 µM
same,GI50,SK-MEL-5 melanoma,> 100 µM
same,TGI,SK-MEL-5 melanoma,> 100 µM
same,GI50,BT-549 breast,> 100 µM
same,TGI,BT-549 breast,> 100 µM
same,GI50,HS 578T breast,> 100 µM
same,TGI,HS 578T breast,> 100 µM
same,GI50,NCI-H460 lung,> 100 µM
same,TGI,NCI-H460 lung,> 100 µM
same,GI50,UO-31 renal,> 100 µM
same,TGI,UO-31 renal,> 100 µM
same,GI50,HCT-15 colon,> 100 µM
same,TGI,HCT-15 colon,> 100 µM
same,GI50,LOX IMVI melanoma,32.6 µM
same,TGI,LOX IMVI melanoma,> 100 µM
same,GI50,MDA-MB-435,26.4 µM
same,TGI,MDA-MB-435,53.8 µM
same,GI50,UACC-257 melanoma,> 100 µM
same,TGI,UACC-257 melanoma,> 100 µM
same,GI50,SF-539 CNS,> 100 µM
same,TGI,SF-539 CNS,> 100 µM
same,GI50,HCT-116 colon,36 µM
same,TGI,HCT-116 colon,> 100 µM
same,GI50,NCI-H23 lung,> 100 µM
same,TGI,NCI-H23 lung,> 100 µM
same,GI50,T-47D breast,> 100 µM
same,TGI,T-47D breast,> 100 µM
same,GI50,SN12C renal,54 µM
same,TGI,SN12C renal,> 100 µM
same,GI50,NCI/ADR-RES ovarian,25.2 µM
same,TGI,NCI/ADR-RES ovarian,62.8 µM
same,GI50,TK-10 renal,> 100 µM
same,TGI,TK-10 renal,> 100 µM
same,GI50,HOP-62 NSCLC,58.6 µM
same,TGI,HOP-62 NSCLC,> 100 µM
same,GI50,786-0 renal,62.5 µM
same,TGI,786-0 renal,> 100 µM
same,GI50,MCF7 breast,77.5 µM
same,TGI,MCF7 breast,> 100 µM
same,GI50,UACC-62 melanoma,> 100 µM
same,TGI,UACC-62 melanoma,> 100 µM
same,GI50,HT29 colon,> 100 µM
same,TGI,HT29 colon,> 100 µM
same,GI50,MALME-3M melanoma,> 100 µM
same,TGI,MALME-3M melanoma,> 100 µM
same,GI50,SNB-75 CNS,> 100 µM
same,TGI,SNB-75 CNS,> 100 µM
same,GI50,IGROV1 ovarian,> 100 µM
same,TGI,IGROV1 ovarian,> 100 µM
same,GI50,CAKI-1 renal,43.2 µM
same,TGI,CAKI-1 renal,89.6 µM
same,GI50,SF-268 CNS,> 100 µM
same,TGI,SF-268 CNS,> 100 µM
same,GI50,OVCAR-3 ovarian,27.9 µM
same,TGI,OVCAR-3 ovarian,82.3 µM
same,GI50,SNB-19 CNS,> 100 µM
same,TGI,SNB-19 CNS,> 100 µM
same,GI50,NCI-H522 lung,> 100 µM
same,TGI,NCI-H522 lung,> 100 µM
same,GI50,ACHN renal,> 100 µM
same,TGI,ACHN renal,> 100 µM
same,GI50,COLO 205 colon,> 100 µM
same,TGI,COLO 205 colon,> 100 µM
same,GI50,KM12 colon,89.3 µM
same,TGI,KM12 colon,> 100 µM
same,GI50,SK-MEL-28 melanoma,> 100 µM
same,TGI,SK-MEL-28 melanoma,> 100 µM
